Experimental data reported in publication PMC7307906, “Macrocyclic Modalities Combining Peptide Epitopes and Natural Product Fragments” (Journal of the American Chemical Society, 2020).
Values joined by “and” are separate entries in the source; they are usually repeats but may differ in a detail not shown here. Identical values can stand only once. Like-named read-outs stand apart in the source and are kept apart here.

[1] = other bond, Fmoc removal, intramolecular imine, N-methylmaleimide 1,3-dipolar cycloaddition, resin, 4 steps
[2] = other bond, Fmoc removal, intramolecular imine, N-phenylmaleimide 1,3-dipolar cycloaddition, resin, 4 steps
[3] = the molecule shown is the open-chain precursor, other bond, 28-membered ring, CH(OMe)3/Et3N, then 6/LiBr/Et3N, DMF, THF, resin, 25.0 °C, with chain assembly
[4] = the molecule shown is the open-chain precursor, other bond, 31-membered ring, CH(OMe)3/Et3N, then 6/LiBr/Et3N, DMF, THF, resin, 25.0 °C, with chain assembly
[5] = the molecule shown is the open-chain precursor, other bond, 31-membered ring, CH(OMe)3/Et3N, then 7/LiBr/Et3N, DMF, THF, resin, 25.0 °C, with chain assembly
[6] = other bond, Fmoc removal (RP-03), imine cyclization/N-methylmaleimide 1,3-dipolar cycloaddition (RP-04), resin, 3 steps
[7] = the molecule shown is the open-chain precursor, other bond, 37-membered ring, CH(OMe)3/Et3N, then 6/LiBr/Et3N, DMF, THF, resin, 25.0 °C, with chain assembly
[8] = the molecule shown is the open-chain precursor, other bond, 34-membered ring, CH(OMe)3/Et3N, then 6/LiBr/Et3N, DMF, THF, resin, 25.0 °C, with chain assembly
[9] = other bond, 34-membered ring, imine formation, then N-methylmaleimide cycloaddition (RP-04), resin, 4 steps
[10] = other bond, N-methylmaleimide (RP-04; imine cyclization/1,3-dipolar cycloaddition), resin, 4 steps
[11] = other bond, Fmoc removal (RP-03), imine cyclization/1,3-dipolar cycloaddition, N-methylmaleimide (RP-04), resin, 4 steps
[12] = other bond, N-phenylmaleimide (RP-04; imine cyclization/1,3-dipolar cycloaddition), resin, 4 steps
[13] = other bond, imine formation, then N-phenylmaleimide cycloaddition (RP-04), resin, with chain assembly
[14] = other bond, Fmoc removal (RP-03), imine cyclization/N-phenylmaleimide 1,3-dipolar cycloaddition (RP-04), resin, 3 steps

## [N-Ph-fused-di-pyrrolidine-NMeFRffNK]Y
Amide bond, 31-membered ring, resin, 3 steps
  ring closure, yield after HPLC: 2%

## [N-Me-fused-di-pyrrolidine-FDINNNK]G
[1]
  ring closure, yield after HPLC: 2%

## [N-Ph-fused-di-pyrrolidine-NMeVDINNNK]G
[2]
  ring closure, yield after HPLC: 2% and 4%

## H-Gly-MePhe-Asn-Asn-Asn-Lys(4-formylbenzoyl)-Gly-resin?
[3]
  ring closure, yield after HPLC: 12%

## Y[CRffNAFC]Y
Disulfide bond, 26-membered ring, DMSO/AcOH, DMSO/AcOH/H2O, 1.55 mM, 25.0 °C, 3 steps
  ring closure, yield after HPLC: 17%

## H-Gly-MePhe-Arg-dPhe-dPhe-Asn-Lys(4-formylbenzoyl)-Gly-resin?
[4]
  ring closure, yield after HPLC: 2%
[5]
  ring closure, yield after HPLC: 1%
The molecule shown is the open-chain precursor, other bond, 31-membered ring, CH(OMe)3/Et3N, then 8/LiBr/Et3N, DMF, THF, resin, 25.0 °C, with chain assembly
  ring closure, yield after HPLC: 4%

## [4-F-Ph-pyrrolidinyl-spirooxindole-NMeFDINNNK]G
Other bond, Fmoc removal (RP-03), imine cyclization/1,3-dipolar cycloaddition, (E)-4-fluorobenzylidene-indolin-2-one, Cu/BINAP (RP-04), resin, 4 steps
  ring closure, yield after HPLC: 6%

## [N-Me-fused-di-pyrrolidine-NMeFRffNK]G
[6]
  ring closure, yield after HPLC: 3%

## H-Gly-MePhe-Asp-Ile-Asn-Asn-Asn-Val-Lys(4-formylbenzoyl)-Gly-resin?
[7]
  ring closure, yield after HPLC: 5%

## H-Gly-dMePhe-Asp-Ile-Asn-Asn-Asn-Lys(4-formylbenzoyl)-Gly-resin
[8]
  ring closure, yield after HPLC: 5%

## [N-Me-fused-di-pyrrolidine-NMeFRffK]Y, O1
Other bond, imine formation, then N-methylmaleimide cycloaddition (RP-04), resin, 4 steps
  ring closure, yield after HPLC: 6% and 7%

## [N-Me-fused-di-pyrrolidine-NMeLDINNNK]G
[9]
  ring closure, yield after HPLC: 3% and 20%

## H-Gly-MePhe-Gly-Leu-Gly-Phe-Lys(4-formylbenzoyl)-Phe-resin?
[5]
  ring closure, yield after HPLC: 5%
The molecule shown is the open-chain precursor, other bond, 31-membered ring, CH(OMe)3/Et3N, then 11/LiBr/Et3N, DMF, THF, resin, 25.0 °C, with chain assembly
  ring closure, yield after HPLC: 4%

## H-Gly-MePhe-Arg-dPhe-dPhe-Asn-Lys(4-formylbenzoyl)-Tyr-resin?
[5]
  ring closure, yield after HPLC: 3%

## H-Gly-MePhe-Leu-Lys-Pro-Ile-Lys(4-formylbenzoyl)-Gly-resin?
[4]
  ring closure, yield after HPLC: 8%
[5]
  ring closure, yield after HPLC: 5%
The molecule shown is the open-chain precursor, other bond, 31-membered ring, CH(OMe)3/Et3N, then 13/LiBr/Et3N, DMF, THF, resin, 25.0 °C, with chain assembly
  ring closure, yield after HPLC: 4%

## [N-Me-fused-di-pyrrolidine-NMeFINNNK]G
[1]
  ring closure, yield after HPLC: 3%

## H-Gly-MePhe-Arg-Phe-Phe-Asn-Ala-Phe-Lys(4-formylbenzoyl)-Tyr-resin?
[7]
  ring closure, yield after HPLC: 2%

## H-Gly-MePhe-Arg-dPhe-dPhe-Asn-Ala-Lys(4-formylbenzoyl)-Gly-resin?
The molecule shown is the open-chain precursor, other bond, 34-membered ring, CH(OMe)3/Et3N, then 11/LiBr/Et3N, DMF, THF, resin, 25.0 °C, with chain assembly
  ring closure, yield after HPLC: 5%

## H-Gly-MePhe-Asp-Ile-Asn-Asn-Asn-Lys(4-formylbenzoyl)-Gly-resin?
The molecule shown is the open-chain precursor, other bond, 34-membered ring, imine formation, then 5-benzylidene-1,3-dimethylbarbiturate (14) cycloaddition (RP-04), resin, 4 steps
  ring closure, yield after HPLC: 11%

## [N-Me-fused-di-pyrrolidine-NMeFRFFNAK]Y
[10]
  ring closure, yield after HPLC: 3%

## H-Gly-MePhe-Arg-Phe-Phe-Asn-Ala-Lys(4-formylbenzoyl)-Tyr-resin?
[8]
  ring closure, yield after HPLC: 3%
The molecule shown is the open-chain precursor, other bond, 34-membered ring, CH(OMe)3/Et3N, then 7/LiBr/Et3N, DMF, THF, resin, 25.0 °C, with chain assembly
  ring closure, yield after HPLC: 2%

## H-Gly-MePhe-Arg-Phe-Phe-Asn-Lys(4-formylbenzoyl)-Gly-resin?
[5]
  ring closure, yield after HPLC: 6%

## [4-OMePh-pyrrolidinyl-spirooxindole-NMeFDINNNK]G
Other bond, Fmoc removal (RP-03), imine cyclization/1,3-dipolar cycloaddition, (E)-4-methoxybenzylidene-indolin-2-one (RP-04), resin, 4 steps
  ring closure, yield after HPLC: 3%

## [N-Me-fused-di-pyrrolidine-NMeFAHASNK]G
[10]
  ring closure, yield after HPLC: 3%

## [N-Me-fused-di-pyrrolidine-NMeFEEKDINNNVKK]T
[1]
  ring closure, yield after HPLC: 2%

## H-Gly-MePhe-Arg-Phe-Phe-Asn-Lys(4-formylbenzoyl)-Tyr-resin?
[4]
  ring closure, yield after HPLC: 3%

## [N-Me-fused-di-pyrrolidine-NMeFDINNNK]G
[11]
  ring closure, yield after HPLC: 24%

## H-Gly-MePhe-Ala-His-Ala-Ser-Asn-Lys(4-formylbenzoyl)-Gly-resin?
[8]
  ring closure, yield after HPLC: 3%

## [N-Me-fused-di-pyrrolidine-NMeFRANK]G
[6]
  ring closure, yield after HPLC: 14%

## [pyrrolidine-NMeFDINNNK]G
Other bond, Fmoc removal (RP-03), imine cyclization/1,3-dipolar cycloaddition, dimethyl maleate (RP-04), resin, 4 steps
  ring closure, yield after HPLC: 6% and 7%

## [N-Ph-fused-di-pyrrolidine-NMeFALFPGFK]G, A2
Other bond, 37-membered ring, CH(OMe)3/Et3N, then 7/LiBr/Et3N, DMF, THF, resin, 25.0 °C, with chain assembly
  ring closure, yield after HPLC: 10%

## [N-4-OMePh-fused-di-pyrrolidine-NMeFDINNNK]G
Other bond, Fmoc removal (RP-03), imine cyclization/1,3-dipolar cycloaddition, N-(4-methoxyphenyl)maleimide (RP-04), resin, 4 steps
  ring closure, yield after HPLC: 20%

## [N-Me-fused-di-pyrrolidine-NMeFDINNNDab]G
Other bond, 32-membered ring, imine formation, then N-methylmaleimide cycloaddition (RP-04), resin, with chain assembly
  ring closure, yield after HPLC: 3%

## [N-Me-fused-di-pyrrolidine-NMeFRffNAFK]G
[11]
  ring closure, yield after HPLC: 4%

## Y[CRFFNAFC]Y
Disulfide bond, 26-membered ring, DMSO/AcOH, DMSO/AcOH/H2O, 1.56 mM, 25.0 °C, 3 steps
  ring closure, yield after HPLC: 25%

## [N-Me-fused-di-pyrrolidine-NMeFRffNAK]Y
[10]
  ring closure, yield after HPLC: 2%

## [N-Ph-fused-di-pyrrolidine-NMeVINNNK]G
[12]
  ring closure, yield after HPLC: 7%

## H-Gly-MePhe-Glu-Glu-Lys-Asp-Ile-Asn-Asn-Asn-Val-Lys-Lys(4-formylbenzoyl)-Thr-resin?
The molecule shown is the open-chain precursor, other bond, 49-membered ring, CH(OMe)3/Et3N, then 6/LiBr/Et3N, DMF, THF, resin, 25.0 °C, with chain assembly
  ring closure, yield after HPLC: 2%

## [N-Ph-fused-di-pyrrolidine-NMeFRFFK], N3
[13]
  ring closure, yield after HPLC: 2%

## [N-Me-fused-di-pyrrolidine-NMeFNNNK]G
[10]
  ring closure, yield after HPLC: 21%

## H-Gly-MePhe-Arg-Ala-Asn-Lys(4-formylbenzoyl)-Gly-resin?
[3]
  ring closure, yield after HPLC: 14%

## [N-Ph-fused-di-pyrrolidine-NMeFRFFK]G, N2
[13]
  ring closure, yield after HPLC: 2% and 3%

## [N-4-OMePh-fused-di-pyrrolidine-NMeFRffNK]G
Other bond, Fmoc removal (RP-03), imine cyclization/maleimide 8 1,3-dipolar cycloaddition (RP-04), resin, 3 steps
  ring closure, yield after HPLC: 4%

## [N-Me-fused-di-pyrrolidine-NMefDINNNK]G
[1]
  ring closure, yield after HPLC: 5%

## [N-Ph-fused-di-pyrrolidine-NMeFRFFNAK]Y
[12]
  ring closure, yield after HPLC: 2%

## [N-Me-fused-di-pyrrolidine-NMeFALFPGFK]G, A1
Other bond, 37-membered ring, CH(OMe)3/Et3N, then 6/LiBr/Et3N, DMF, THF, resin, 25.0 °C, 4 steps
  ring closure, yield after HPLC: 22%

## [N-3,4,5-OMePh-fused-di-pyrrolidine-NMeFRffNK]G
Other bond, Fmoc removal (RP-03), imine cyclization/N-(3,4,5-trimethoxyphenyl)maleimide 1,3-dipolar cycloaddition (RP-04), resin, 3 steps
  ring closure, yield after HPLC: 2%

## [N-Ph-fused-di-pyrrolidine-NMeFRANK]G
[14]
  ring closure, yield after HPLC: 3%

## H-Gly-MePhe-Arg-dPhe-dPhe-Asn-Ala-Phe-Lys(4-formylbenzoyl)-Gly-resin?
[7]
  ring closure, yield after HPLC: 4%

## H-Gly-MePhe-Ile-Asn-Asn-Asn-Lys(4-formylbenzoyl)-Gly-resin?
[4]
  ring closure, yield after HPLC: 3%

## [N-Ph-fused-di-pyrrolidine-NMeFDINNNDap]G
[2]
  ring closure, yield after HPLC: 2%

## [N-Me-fused-di-pyrrolidine-NMeVDINNNK]G
[9]
  ring closure, yield after HPLC: 27% and 12%

## [N-Me-fused-di-pyrrolidine-NMeGDINNNK]G
Other bond, 34-membered ring, imine formation, then N-methylmaleimide cycloaddition (RP-04), resin, with chain assembly
  ring closure, yield after HPLC: 8%

## [N-Me-fused-di-pyrrolidine-NMeFDINNNDap]G
Other bond, 31-membered ring, imine formation, then N-methylmaleimide cycloaddition (RP-04), resin, with chain assembly
  ring closure, yield after HPLC: 4%

## [N-Me-fused-di-pyrrolidine-NMeFDINNNVK]G
[1]
  ring closure, yield after HPLC: 5%

## H-Gly-MePhe-Arg-Phe-Phe-Asn-Ala-Phe-Lys(4-formylbenzoyl)-Gly-resin?
[7]
  ring closure, yield after HPLC: 2%
The molecule shown is the open-chain precursor, other bond, 37-membered ring, CH(OMe)3/Et3N, then 7/LiBr/Et3N, DMF, THF, resin, 25.0 °C, with chain assembly
  ring closure, yield after HPLC: 1%

## [N-Ph-fused-di-pyrrolidine-NMeFRffNK]G
[14]
  ring closure, yield after HPLC: 1%

## [N-Ph-fused-di-pyrrolidine-NMeFRffK]Y, O2
[13]
  ring closure, yield after HPLC: 2%

## H-Gly-MePhe-Asp-Ile-Asn-Asn-Asn-Lys(4-formylbenzoyl)-Gly-resin
The molecule shown is the open-chain precursor, other bond, 34-membered ring, CH(OMe)3/Et3N, then 12/LiBr/Et3N, DMF, THF, resin, 25.0 °C, with chain assembly
  ring closure, yield after HPLC: 3%

## H-Gly-Pro-Asp-Ile-Asn-Asn-Asn-Lys(4-formylbenzoyl)-Gly-resin?
[8]
  ring closure, yield after HPLC: 3%

## [N-Ph-fused-di-pyrrolidine-NMeFRFFK]Y, N1
Other bond, imine formation, then N-phenylmaleimide cycloaddition (RP-04), resin, 4 steps
  ring closure, yield after HPLC: 16% and 10%
